According to PubChem BioAssay (NCI):
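Five compound concentrations were applied to cells in 96-well plates for 48 hours; endpoints were derived by simple linear interpolation of the resulting dose-response curve. GI50 = concentration required for 50% inhibition of growth. TGI marks complete inhibition of growth.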

Columns and labels:
Assay in all cases: inhibition of tumour cell growth, NCI panel, 48 h
NCI-H460 lung = tested on: NCI-H460 lung
NCI-H522 lung = tested on: NCI-H522 lung
NCI/ADR-RES ovarian = tested on: NCI/ADR-RES ovarian
OVCAR-3 ovarian = tested on: OVCAR-3 ovarian
OVCAR-4 ovarian = tested on: OVCAR-4 ovarian
OVCAR-5 ovarian = tested on: OVCAR-5 ovarian
OVCAR-8 ovarian = tested on: OVCAR-8 ovarian
PC-3 prostate = tested on: PC-3 prostate
RPMI-8226 leukemia = tested on: RPMI-8226 leukemia
RXF 393 renal = tested on: RXF 393 renal
SF-268 CNS = tested on: SF-268 CNS
SF-295 CNS = tested on: SF-295 CNS
SF-539 CNS = tested on: SF-539 CNS
SK-MEL-2 melanoma = tested on: SK-MEL-2 melanoma
SK-MEL-28 melanoma = tested on: SK-MEL-28 melanoma
SK-MEL-5 melanoma = tested on: SK-MEL-5 melanoma
SK-OV-3 ovarian = tested on: SK-OV-3 ovarian
SN12C renal = tested on: SN12C renal
SNB-19 CNS = tested on: SNB-19 CNS
SNB-75 CNS = tested on: SNB-75 CNS
SR leukemia = tested on: SR leukemia
SW-620 colon = tested on: SW-620 colon
T-47D breast = tested on: T-47D breast
TK-10 renal = tested on: TK-10 renal
U251 CNS = tested on: U251 CNS
UACC-257 melanoma = tested on: UACC-257 melanoma
UACC-62 melanoma = tested on: UACC-62 melanoma
UO-31 renal = tested on: UO-31 renal

## CCN1CCN(Cc2ccc(C(=O)Nc3cccc(Nc4ccc5c(OC)cccc5n4)c3)cc2C(F)(F)F)CC1
NCI-H460 lung
  GI50: 1470 nM
  TGI: 2800 nM
NCI-H522 lung
  GI50: 1700 nM
  TGI: 3300 nM
NCI/ADR-RES ovarian
  GI50: 2280 nM
  TGI: 9030 nM
OVCAR-3 ovarian
  GI50: 1800 nM
  TGI: 4580 nM
OVCAR-4 ovarian
  GI50: 2890 nM
  TGI: 13000 nM
OVCAR-5 ovarian
  GI50: 3280 nM
  TGI: 12700 nM
OVCAR-8 ovarian
  GI50: 6780 nM
  TGI: 18400 nM
PC-3 prostate
  GI50: 2140 nM
  TGI: 6260 nM
RPMI-8226 leukemia
  GI50: 2240 nM
  TGI: 6670 nM
RXF 393 renal
  GI50: 1630 nM
  TGI: 5000 nM
SF-268 CNS
  GI50: 2170 nM
  TGI: 9910 nM
SF-295 CNS
  GI50: 1520 nM
  TGI: 2970 nM
SF-539 CNS
  GI50: 1370 nM
  TGI: 2540 nM
SK-MEL-2 melanoma
  GI50: 10700 nM
  TGI: 23800 nM
SK-MEL-28 melanoma
  GI50: 1560 nM
  TGI: 2870 nM
SK-MEL-5 melanoma
  GI50: 1450 nM
  TGI: 2780 nM
SK-OV-3 ovarian
  GI50: 12600 nM
  TGI: 27200 nM
SN12C renal
  GI50: 3620 nM
  TGI: 14800 nM
SNB-19 CNS
  GI50: 1650 nM
  TGI: 3620 nM
SNB-75 CNS
  GI50: 1200 nM
  TGI: 8390 nM
SR leukemia
  GI50: 1870 nM
  TGI: 4670 nM
SW-620 colon
  GI50: 1450 nM
  TGI: 2730 nM
T-47D breast
  GI50: 2110 nM
  TGI: 8140 nM
TK-10 renal
  GI50: 8670 nM
  TGI: 22100 nM
U251 CNS
  GI50: 1690 nM
  TGI: 3470 nM
UACC-257 melanoma
  GI50: 1510 nM
  TGI: 2850 nM
UACC-62 melanoma
  GI50: 1530 nM
  TGI: 2830 nM
UO-31 renal
  GI50: 2330 nM
  TGI: 9270 nM
